Patent EP0736302A2, “Protease inhibitors, a DNA construct for the expression of a protease and a process for measuring proteases and/or protease inhibitors” (Stichting REGA V.Z.W., priority 1995, dated 1996)
In brackets after ≈: the same amount, converted by molar mass. Entries after “also recorded” stand apart in the source; their conditions may differ. Structures can show the parent of a compound that is named as a salt.

What was measured:
[1] = molecular target: T1, gelatinase B from neutrophils (Homo sapiens, UniProt P14780); experiment: gelatinase microtiter plate assay (digestion of biotinylated gelatin, inhibition factor); format: biochemical; parameters: endogenous in cells; host or cells: human neutrophils stimulated with lipopolysaccharide; conditioned medium; settings: crude neutrophil gelatinase B, '-' = no inhibitory activity
Method: The measurement of gelatinase activity was based on the detection of non-degraded biotinylated gelatin with a streptavidin-peroxidase conjugate. This test is based on the biotin-avidin method described by Sorbi et al. (25) but modified to a one plate assay (schematically represented in Fig. 1.). Gelatin (1mg/ml) was dissolved in 0.1 M sodium bicarbonate pH 8.3 by heating to 40°C. Biotin-N-hydroxysuccinimide ester was dissolved in dimethylsulfoxide (Me2SO) and was added to the gelatin in a 15-fold molar excess. The mixture was allowed to react overnight at 4°C and the biotinylated gelatin was then dialyzed against phosphate buffered saline (PBS). Neutrophil granulocyte (Neu) medium was collected from human neutrophils after stimulation with lipopolysaccharide (1µg/ml) overnight at 37°C in Minimal Essential Medium. Cells were removed by 10 min centrifugation at 1000 g. Purified gelatinase was obtained by one-step affinity chromatography of neutrophil medium on a gelatin-sepharose column as described (8).
Modified flat bottom 96-well ELISA plates were coated overnight with 0.5 µg/ml avidin in distilled water. The plates were then blocked with 0.3% bovine serum albumin (BSA, Sigma) in PBS for 1 hour at 37°C. Biotinylated gelatin was diluted to 50 µg/ml and 100µl was added to the avidin-coated wells. After incubation for one hour at 20°C, the plate was rinsed with PBS. Medium containing the secreted gelatinases from human neutrophils (dilution range 1/3-1/3^11) and the inhibitors were diluted in incubation buffer (50 mM Tris-HCl pH 7.5, 10 mM CaCl2, 0.02% (W/V) NaN3, 1% (V/V) Triton X-100) and 100 µl of each were mixed. 190 µl of the mixture was added to the gelatin-coated plates and allowed to digest the gelatin overnight at 37°C. The plates were then washed with PBS and each well was incubated with 100 µl peroxidase-conjugated-streptavidin at a 1:2000 dilution for 1 hour at 37°C. After rinsing the plate, the ABTS substrate was added (0.5 mg/ml solution containing 0.1 M citric acid, 0.2 M Na2HPO4, pH 4.3, 0.07 µl/ml 30% H2O2) and the optical density was read at 405 nm after 10 min. incubation at room temperature.
Gelatin is biotinylated and bound to avidin-coated microtiter plates. By addition of gelatinases the number of free biotin groups decreases and proportionally less streptavidin-peroxidase is bound to the residual substrate. Bound streptavidin-peroxidase activity is measured spectrophotometrically by reaction of peroxide with ABTS. Inhibition of gelatinase is obtained by the addition of inhibitor to a known amount of gelatinase prior to application to the plates. The peroxidase activity increases proportionally with the inhibitory activity.
The titration curves of gelatinase inhibition were always related to a blanc curve and this for enzyme concentrations within the slope of the curve (vertical dotted lines Fig. 3). The decrease in enzyme activity to which the inhibitor-incubated sample corresponded was defined as the inhibition factor (IF).
The titration curves of gelatinase inhibition by tetracyclines were always related to a blanc curve and this for enzyme concentrations within the slope of the curve (vertical dotted lines Fig. 3). The decrease in enzyme activity to which the tetracycline incubated sample corresponded was defined as the inhibition factor (IF).

Gelatinase A = molecular target: T2, Gelatinase A (Homo sapiens, UniProt P08253); experiment: zymography of cerebrospinal fluid of MS / optic neuritis patients with inhibitor; format: biochemical; settings: CSF of MS patients, increasing concentrations (Fig. 13)
T2 construct: Gelatinase A and B, detected by zymography in the cerebrospinal fluid of MS patients; from tissue; host or cells: cerebrospinal fluid of patients with multiple sclerosis or optic neuritis
T2 sequence (P08253 110-660): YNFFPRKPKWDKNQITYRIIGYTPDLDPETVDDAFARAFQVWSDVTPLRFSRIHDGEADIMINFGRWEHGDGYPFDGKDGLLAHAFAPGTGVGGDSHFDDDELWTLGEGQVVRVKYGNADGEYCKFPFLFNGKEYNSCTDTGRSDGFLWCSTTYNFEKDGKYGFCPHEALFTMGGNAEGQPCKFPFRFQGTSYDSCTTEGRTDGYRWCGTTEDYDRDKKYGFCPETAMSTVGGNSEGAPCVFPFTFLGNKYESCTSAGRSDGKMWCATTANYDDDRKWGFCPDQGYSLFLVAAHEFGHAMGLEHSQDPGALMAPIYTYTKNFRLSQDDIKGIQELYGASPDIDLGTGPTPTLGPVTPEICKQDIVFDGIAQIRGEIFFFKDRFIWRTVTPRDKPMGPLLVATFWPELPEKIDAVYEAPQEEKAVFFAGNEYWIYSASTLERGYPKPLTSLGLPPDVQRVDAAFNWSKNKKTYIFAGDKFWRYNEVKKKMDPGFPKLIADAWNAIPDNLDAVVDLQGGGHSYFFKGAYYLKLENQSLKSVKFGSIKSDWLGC
Method: (§1) Quantitative zymography was performed as described (7,8). Briefly, 40 µl of loading buffer was added to 40 µl of each sample and applied on 7.5% polyacrylamide gels which had been co-polymerised with 0.1% (w/v) gelatin. Stacking gels contained 5% polyacrylamide. The gels were run at 4°C for 16h at 90V. The gels were then incubated in washing buffer (50 mM Tris-HCl pH 7.5, 10mM CaCl2, O.O2% (W/V) NaN3, 2.5% (v/v) Triton X-100) at room temperature, 2x20 min to remove sodium dodecyl sulfate and overnight in developing buffer (50 mM Tris-HCl pH 7.5, 10mM CaCl2, O.O2% (w/v) NaN3, 1% (v/v) Triton X-100) at 37°C. […] The sites of gelatinase activity appeared as unstained bands on a blue background and were quantified by computerised image analysis through scanning densitometry with a PDI scanner (Pharmacia, Belgium) and the PDI software package. […]
(§2) Similar results were obtained when pure preparations of gelatinase B were tested or when gelatinase B was measured in the presence of D-penicillamine in body fluids or cell supernatants.
(§3) Figure 13. […] Gelatinase A (---) and B(_) activities in the CSF were measured by zymography in the absence or the presence of increasing concentrations of D-penicillamine. The scanning indices for each patient are calculated at the residual activity in the presence of inhibitor versus the activity without inhibitor. […]

Gelatinase B [2] = molecular target: T3, Gelatinase B (Homo sapiens, UniProt P14780); experiment: as above; format: biochemical; settings: CSF of MS patients, increasing concentrations (Fig. 13)
T3 construct: Gelatinase A and B, detected by zymography in the cerebrospinal fluid of MS patients; from tissue; host or cells: cerebrospinal fluid of patients with multiple sclerosis or optic neuritis
Method: as §1, §2, §3

gelatinase B [3] = experiment: inhibition of homogeneous enzyme (ID50); format: biochemical
[4] = system: human monocytic cell line THP-1; experiment: cellular gelatinase B protein and mRNA production (northern blot, zymography); format: cell-based; settings: THP-1, LPS 1µg/ml, retinoic acid 100nM or untreated; DPEN 50 µg/ml; 16 h (Fig. 14)
Method: Figure 14. […] Cultures of the human monocytic cell line THP-1 were stimulated with lipopolysaccharide (LPS, 1µg/ml), retinoic acid (RA, 100nM) or left untreated (CO) in the presence or absence of D-penicillamine (DPEN, 50 µg/ml). After 16 h total RNA was extracted and gelatinase B mRNA was measured by northern blot analysis with a human probe (41) (a). Gelatinase B protein in the cell culture fluids was assayed by zymographic analysis on gelatin substrate gels (b).

Biozzi AB/H mice = experiment: chronic relapsing experimental allergic encephalomyelitis; format: in vivo; settings: 750 µg three times weekly from day 22 onwards, after full-blown disease (Fig. 16)
SJL mice = experiment: acute (hyperacute) experimental allergic encephalomyelitis; settings: intraperitoneally, equivalent of 27 to 375 µg per mouse daily (Fig. 15)
Method: In both hind paws 50µl of this emulsion was injected on day 0. On day 0 and 2, 50µl B.pertussis (200x10^9 bacteria/ml) were injected intraveneously. […] The control group received injections with 0.9% NaCl, used as excipiens. The animals were daily monitored and the disease and mortality were scored.).

[5] = molecular target: T1, gelatinase B from neutrophils; experiment: quantitative gelatin zymography with inhibitor in the developing buffer; format: biochemical; parameters: A standard preparation of gelatinase B from neutrophils was repetitiously loaded; endogenous in cells; host or cells: human neutrophils; settings: increasing amounts of inhibitor in developing buffer (Fig. 4)
Method: Quantitative zymography was performed as described (7,8). Briefly, 40 µl of loading buffer was added to 40 µl of each sample and applied on 7.5% polyacrylamide gels which had been co-polymerised with 0.1% (w/v) gelatin. Stacking gels contained 5% polyacrylamide. The gels were run at 4°C for 16h at 90V. The gels were then incubated in washing buffer (50 mM Tris-HCl pH 7.5, 10mM CaCl2, O.O2% (W/V) NaN3, 2.5% (v/v) Triton X-100) at room temperature, 2x20 min to remove sodium dodecyl sulfate and overnight in developing buffer (50 mM Tris-HCl pH 7.5, 10mM CaCl2, O.O2% (w/v) NaN3, 1% (v/v) Triton X-100) at 37°C. The gels were then stained in Coomassie brilliant blue R-250 and destained in methanol/acetic acid. The sites of gelatinase activity appeared as unstained bands on a blue background and were quantified by computerised image analysis through scanning densitometry with a PDI scanner (Pharmacia, Belgium) and the PDI software package. For inhibition experiments, the inhibitors were dissolved in the developing buffer at the appropriate concentration. […] The enzyme activity was developed by staining of the substrate with Coomassie blue and quantification of the substrate digestion by scanning densitometry. […] The enzyme activity was developed by staining of the substrate with Coomassie blue and quantification of the substrate digestion by scanning densitometry. […]

[6] = tetracycline concentration 1.67 mg/ml
[7] = tetracycline concentration 3.33 mg/ml
[8] = tetracycline concentration 0,83 mg/ml

T1 sequence (P14780 94-707): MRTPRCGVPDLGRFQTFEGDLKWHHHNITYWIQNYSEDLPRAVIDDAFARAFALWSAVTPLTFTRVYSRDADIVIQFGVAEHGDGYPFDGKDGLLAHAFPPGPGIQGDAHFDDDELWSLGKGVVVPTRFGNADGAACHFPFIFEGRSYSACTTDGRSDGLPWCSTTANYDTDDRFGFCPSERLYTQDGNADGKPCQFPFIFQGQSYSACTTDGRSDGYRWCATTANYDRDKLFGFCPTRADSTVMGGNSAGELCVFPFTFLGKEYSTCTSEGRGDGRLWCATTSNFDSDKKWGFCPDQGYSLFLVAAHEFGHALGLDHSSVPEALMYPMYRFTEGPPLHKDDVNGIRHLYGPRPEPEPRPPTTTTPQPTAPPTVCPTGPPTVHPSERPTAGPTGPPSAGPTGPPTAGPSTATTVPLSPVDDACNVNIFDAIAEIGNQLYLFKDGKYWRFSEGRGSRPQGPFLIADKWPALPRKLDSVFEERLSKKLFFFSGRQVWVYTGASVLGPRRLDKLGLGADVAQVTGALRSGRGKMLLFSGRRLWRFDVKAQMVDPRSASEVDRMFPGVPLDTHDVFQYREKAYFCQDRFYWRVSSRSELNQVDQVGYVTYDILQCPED
T3 sequence (P14780 94-707): as above

| Inhibition factor (IF) [1, 6] | Inhibition factor (IF) [1, 7] | Molecule | also measured |
| --- | --- | --- | --- |
| 3 |  | 4-epitetracycline HCl |  |
|  | precipitation | 7-aminominocycline HCl |  |
|  | precipitation | Cc1c2c(c(O)c3c(O)cccc13)C(=O)[C@]1(O)C(=O)C(C(N)=O)=C(O)[C@H](N(C)C)[C@@H]1C2 [4-epianhydrotetracycline HCl] |  |
|  | precipitation | CN(C)[C@H]1C(O)=C(C(N)=O)C(=O)[C@@]2(O)C(O)=C3C(=O)c4c(O)ccc(Cl)c4[C@@](C)(O)[C@H]3C[C@@H]12 [4-epichlortetracycline HCl] |  |
|  | 3 | CN(C)c1ccc(O)c2c1C[C@H]1C[C@H]3[C@@H](N(C)C)C(O)=C(C(N)=O)C(=O)[C@@]3(O)C(O)=C1C2=O [4-epiminocycline HCl] |  |
| 5 | 8 | CN(C)[C@@H]1C(O)=C(C(N)=O)C(=O)[C@@]2(O)C(O)=C3C(=O)c4c(O)cccc4C[C@H]3C[C@@H]12 [6-deoxy-6-demethyltetracycline HCl] | Inhibition factor (IF) [1, 8]: 3 |
|  |  | CC(C)(S)[C@@H](N)C(=O)O [D-penicillamine] | inhibition of Gelatinase A in cerebrospinal fluid (Gelatinase A): inhibited in a dose-dependent way; inhibition of Gelatinase B in cerebrospinal fluid (Gelatinase B [2]): inhibited in a dose-dependent way; ID50 (gelatinase B [3]): 3 µg/mL (≈ 20.1 µM); spontaneous and induced levels of gelatinase B protein and mRNA [4]: remained constant; disease recurrencies (mean clinical score), chronic relapsing EAE (Biozzi AB/H mice): abrogated the disease recurrencies; development of disease symptoms (mean disability index), acute EAE (SJL mice): complete blockage; also recorded: inhibits in a dose-dependent way the development of disease symptoms |
| 27 | 45 | CN(C)[C@@H]1C(O)=C(C(N)=O)C(=O)[C@@]2(O)C(O)=C3C(=O)c4c(O)ccc(Cl)c4[C@@](C)(O)[C@H]3C[C@@H]12 [chlortetracycline HCl] | Inhibition factor (IF) [1, 8]: 9 |
| 8 | 27 | C=C1c2cccc(O)c2C(=O)C2=C(O)[C@]3(O)C(=O)C(C(N)=O)=C(O)[C@@H](N(C)C)[C@@H]3[C@@H](O)[C@H]12 [metacycline HCl] | Inhibition factor (IF) [1, 8]: 3 |
| 3 | 8 | CN(C)c1ccc(O)c2c1C[C@H]1C[C@H]3[C@H](N(C)C)C(O)=C(C(N)=O)C(=O)[C@@]3(O)C(O)=C1C2=O [minocycline HCl] | inhibition of gelatinase B on zymography [5]: inhibits gelatinase B in a dose-dependent way |
| 3 | 9 | α-apooxytetracycline base |  |
|  | 3 | β-apooxytetracycline base |  |

| Molecule | Inhibition factor (IF) [1, 6] | Inhibition factor (IF) [1, 7] | also measured |
| --- | --- | --- | --- |
| CN(C)[C@@H]1C(=O)C(C(N)=O)=C(O)[C@@]2(O)C(=O)C[C@@H]([C@]3(C)OC(=O)c4c(O)ccc(Cl)c43)C[C@@H]12 [isochlortetracycline HCl] |  | 3 |  |
| CN(C)[C@@H]1C(O)=C(C(N)=O)C(=O)[C@@]2(O)C(O)=C3C(=O)c4c(O)cccc4[C@@](C)(O)[C@H]3C[C@@H]12 [tetracycline HCl] | 3 | 8 |  |
